The target of the test is hMC2 receptor (Homo sapiens, UniProt Q01718). Nature of the test: hMC2 membrane binding assay ([125I]ACTH (1-39) Tyr23, SPA). Set-up: scale not given here. As to conditions: crude hMC2R membranes from CRE-bla-CHO-K1 cells expressing hMC2 receptor and hMRAP; [125I]ACTH (1-39) Tyr23 0.2 nM; 1.5 hours at room temperature; read-out: MC2R binding potency. As for the experimental part: Crude membrane fractions are prepared from CRE-bla-CHO-K1 cells stably expressing hMC2 receptor and hMRAP accessory protein (Thermo Fisher). The cells are grown to 85-100% confluence on standard tissue culture dishes in GlutaMax DMEM growth media (Gibco) with following additives: 10% dialyzed FBS (Gemini), 0.1 mM NEAA (Gibco), 25 mM HEPES (Gibco), 5 μg/mL blasticidin (Goldbio), 100 μg/mL zeocin (Invitrogen), 600 μg/mL hygromycin (Goldbio). To prepare membranes, cells are scraped and collected in 1× Dulbecco's phosphate buffered saline (Corning) and then pelleted at 1000 RPM's. The cell pellet is reconstituted in membrane preparation buffer (20 mM HEPES, 6 mM MgCl2 and 1 mM EGTA, protease inhibitor tablets (Pierce) adjusted to pH 7.4), homogenized using a dounce homogenizer, and the resulting membrane fraction is pelleted by centrifugation at 12,000 RPM's. The membrane pellet is resuspended in membrane preparation buffer, snap freezed and stored at −80° C. for later use.
Sequence of hMC2 receptor (Q01718 whole entry): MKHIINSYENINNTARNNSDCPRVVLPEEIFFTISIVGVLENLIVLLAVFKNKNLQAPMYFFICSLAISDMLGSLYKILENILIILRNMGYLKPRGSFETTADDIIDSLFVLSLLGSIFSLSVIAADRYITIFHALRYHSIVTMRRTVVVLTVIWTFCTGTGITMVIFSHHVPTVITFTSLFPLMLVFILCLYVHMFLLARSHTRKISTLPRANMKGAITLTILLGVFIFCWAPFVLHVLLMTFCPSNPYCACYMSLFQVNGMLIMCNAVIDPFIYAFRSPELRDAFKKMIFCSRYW
Sequence of hMC2 receptor (Q8TCY5 whole entry partner): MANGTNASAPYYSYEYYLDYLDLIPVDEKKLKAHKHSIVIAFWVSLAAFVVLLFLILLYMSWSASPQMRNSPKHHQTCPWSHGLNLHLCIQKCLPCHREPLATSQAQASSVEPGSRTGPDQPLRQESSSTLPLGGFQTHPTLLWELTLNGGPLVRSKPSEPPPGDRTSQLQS
Binding Assay for hMC2 Antagonists Protocol:
The hMC2 membrane binding assay utilizes the following components: radiolabel [^125I]ACTH (1-39) Tyr23 (PerkinElmer), wheatgerm agglutinin coated PVT SPA beads (PerkinElmer), crude hMC2R membranes, and compounds. Briefly hMC2R membranes are incubated with SPA beads in binding assay buffer (50 mM HEPES, 5 mM MgCl2, 1 mM CaCl2, 0.2% BSA, protease inhibitor tablets (Pierce) adjusted to pH7.4) prior to assay initiation. A dose response of compound (the final concentration of compound are typically 0-10,000 nM), SPA membranes, and [^125I]ACTH (1-39) Tyr23 at a final concentration of 0.2 nM is plated in a 96-well assay plate and allowed to incubate 1.5 hours at room temperature. Assay plates are read using a Top Count NXT and Ki values for compounds are determined using a GraphPad Prism 6 non-linear regression analysis.
With `CCOc1ccccc1-c1ccc(N2CCN(C(=O)N3CCC[C@H]3C(F)(F)F)C[C@H]2CC)c(C(=O)N[C@H]2CCN(C)C2)n1` [Compound 1-375, 6-(2-ethoxyphenyl)-3-[(2R)-2-ethyl-4-[(2S)-2-(trifluoromethyl)pyrrolidine-1-carbonyl]piperazin-1-yl]-N-[(3S)-1-methylpyrrolidin-3-yl]pyridine-2-carboxamide], the Ki was below 10 nM.
Take `CCOc1ncccc1-c1ccc(N2CCN(C(=O)C3(C(F)(F)F)CCCC3)C[C@H]2CC)c(C(=O)N[C@@H]2CCNC2)n1` [Compound 1-263, 2′-ethoxy-5-[(2R)-2-ethyl-4-[1-(trifluoromethyl)cyclopentanecarbonyl]piperazin-1-yl]-N-[(3R)-pyrrolidin-3-yl]-[2,3′-bipyridine]-6-carboxamide]: the Ki is below 10 nM.
Regarding `CCOc1ncccc1-c1ccc(N2CCN(C(=O)c3ccc(C(F)(F)F)s3)C[C@H]2CC)c(C(=O)N[C@@H]2CCNC2)n1` [Compound 1-368, 2′-ethoxy-5-[(2R)-2-ethyl-4-[5-(trifluoromethyl)thiophene-2-carbonyl]piperazin-1-yl]-N-[(3R)-pyrrolidin-3-yl]-[2,3′-bipyridine]-6-carboxamide], the Ki is below 10 nM.
Regarding `CC[C@@H]1CN(C(=O)c2ccc(Cl)cc2C(F)(F)F)CCN1c1ccc(-c2ccccc2OC)cc1CN` [Compound 2-3, 1-{4-[(2R)-4-[4-chloro-2-(trifluoromethyl)benzoyl]-2-ethylpiperazin-1-yl]-2′-methoxy-[1,1′-biphenyl]-3-yl}methanamine], the Ki was in the range of 10 to 100 nM.
With `CCOc1ncccc1-c1ccc(N2CCN(C(=O)c3ccc(F)cc3C(F)F)C[C@H]2CC)c(C(=O)N[C@@H]2CCNC2)c1F` [Compound 1-189, 6-[(2R)-4-[2-(difluoromethyl)-4-fluorobenzoyl]-2-ethylpiperazin-1-yl]-3-(2-ethoxypyridin-3-yl)-2-fluoro-N-[(3R)-pyrrolidin-3-yl]benzamide] the figure was below 10 nM.
In the case of `CCOc1ncccc1-c1ccc(N2CCN(C(=O)c3ccc(OC)nc3C(F)(F)F)C[C@H]2CC)c(C(=O)NC[C@@H]2CCN2)n1` [Compound 1-244, N-{[(2S)-azetidin-2-yl]methyl}-2′-ethoxy-5-[(2R)-2-ethyl-4-[6-methoxy-2-(trifluoromethyl)pyridine-3-carbonyl]piperazin-1-yl]-[2,3′-bipyridine]-6-carboxamide], the Ki was below 10 nM.
With `CCOc1ccc(C(=O)N2CCN(c3ccc(-c4cccnc4OC)nc3C(=O)NC3CN(C)C3)[C@H](CC)C2)c(C(F)(F)F)n1` [Compound 1-247, 5-[(2R)-4-[6-ethoxy-2-(trifluoromethyl)pyridine-3-carbonyl]-2-ethylpiperazin-1-yl]-2′-methoxy-N-(1-methylazetidin-3-yl)-[2,3′-bipyridine]-6-carboxamide] the figure was below 10 nM; with `CC[C@@H]1CN(C(=O)c2ccc(Cl)cc2C(F)(F)F)CCN1c1ccc(-c2cccnc2OC)cc1C(=O)NCCN` [Compound 1-71, N-(2-aminoethyl)-2-[(2R)-4-[4-chloro-2-(trifluoromethyl)benzoyl]-2-ethylpiperazin-1-yl]-5-(2-methoxypyridin-3-yl)benzamide], below 10 nM.
For the compound `CCOc1ncccc1-c1ccc(N2CCN(C(=O)N3CCc4cc(F)cc(C#N)c43)C[C@H]2CC)c(C(=O)N[C@H]2CCN(C)C2)n1` [Compound 1-423, 5-[(2R)-4-(7-cyano-5-fluoro-2,3-dihydro-1H-indole-1-carbonyl)-2-ethylpiperazin-1-yl]-2′-ethoxy-N-[(3S)-1-methylpyrrolidin-3-yl]-[2,3′-bipyridine]-6-carboxamide], the Ki is below 10 nM.
With `CCOc1ccccc1-c1ccc(N2CCN(C(=O)OC3(C(F)(F)F)CCC3)C[C@H]2CC)c(C(=O)N[C@@H]2CCNC2)n1` [Compound 1-338, 1-(trifluoromethyl)cyclobutyl (3R)-4-[6-(2-ethoxyphenyl)-2-{[(3R)-pyrrolidin-3-yl]carbamoyl}pyridin-3-yl]-3-ethylpiperazine-1-carboxylate] the figure was below 10 nM; with `CCOc1ncccc1-c1ccc(N2CCN(C(=O)n3ccc4cc(F)cc(C#N)c43)C[C@H]2CC)c(C(=O)N[C@@H]2CCN(C)C2)n1` [Compound 1-438, 5-[(2R)-4-(7-cyano-5-fluoro-1H-indole-1-carbonyl)-2-ethylpiperazin-1-yl]-2′-ethoxy-N-[(3R)-1-methylpyrrolidin-3-yl]-[2,3′-bipyridine]-6-carboxamide], below 10 nM; with `CCOc1ccncc1-c1ccc(N2CCN(C(=O)c3ccc(C(F)(F)F)cc3Cl)C[C@H]2CC)c(C(=O)NCCN)c1` [Compound 1-35, N-(2-aminoethyl)-2-[(2R)-4-[2-chloro-4-(trifluoromethyl)benzoyl]-2-ethylpiperazin-1-yl]-5-(4-ethoxypyridin-3-yl)benzamide], below 10 nM.
Take `CCOc1ccc(C(=O)N2CCN(c3ccc(-c4cccnc4OCC)nc3C(=O)N[C@@H]3CCN(C)C3)[C@H](CC)C2)c(C(F)(F)F)n1` [Compound 1-243, 2′-ethoxy-5-[(2R)-4-[6-ethoxy-2-(trifluoromethyl)pyridine-3-carbonyl]-2-ethylpiperazin-1-yl]-N-[(3R)-1-methylpyrrolidin-3-yl]-[2,3′-bipyridine]-6-carboxamide]: the Ki is below 10 nM.
`CCOc1ncccc1-c1ccc(N2CCN(C(=O)c3ccc(Cl)cc3C(F)(F)F)C[C@H]2CC)c(C(=O)N[C@H]2CCNC2)n1` [Compound 1-214, 5-[(2R)-4-[4-chloro-2-(trifluoromethyl)benzoyl]-2-ethylpiperazin-1-yl]-2′-ethoxy-N-[(3S)-pyrrolidin-3-yl]-[2,3′-bipyridine]-6-carboxamide]: the Ki was below 10 nM.
Regarding `CCOc1ncccc1-c1ccc(N2CCN(C(=O)c3ccc(Cl)cc3N(C)C)C[C@H]2CC)c(C(=O)N[C@@H]2CCNC2)c1` [Compound 1-91, 2-[(2R)-4-[4-chloro-2-(dimethylamino)benzoyl]-2-ethylpiperazin-1-yl]-5-(2-ethoxypyridin-3-yl)-N-[(3R)-pyrrolidin-3-yl]benzamide], the Ki is below 10 nM.
The figure for `CCOc1ncccc1-c1ccc(N2CCN(C(=O)C34CCC(C(F)(F)F)(CC3)C4)C[C@H]2CC)c(C(=O)N[C@@H]2CCN(C)C2)n1` [Compound 1-385, 2′-ethoxy-5-[(2R)-2-ethyl-4-[4-(trifluoromethyl)bicyclo[2.2.1]heptane-1-carbonyl]piperazin-1-yl]-N-[(3R)-1-methylpyrrolidin-3-yl]-[2,3′-bipyridine]-6-carboxamide] is below 10 nM; for `CCOc1ccccc1-c1ccc(N2CCN(C(=O)N3CCC[C@H]3C(F)(F)F)C[C@H]2CC)c(C(=O)NC[C@@H]2CCN2C)n1` [Compound 1-387, 6-(2-ethoxyphenyl)-3-[(2R)-2-ethyl-4-[(2S)-2-(trifluoromethyl)pyrrolidine-1-carbonyl]piperazin-1-yl]-N-{[(2S)-1-methylazetidin-2-yl]methyl}pyridine-2-carboxamide] it is below 10 nM.
For `CCOc1ccccc1-c1ccc(N2CCN(C(=O)c3ccc(Cl)cc3C(F)F)C[C@H]2CC)c(C(=O)N[C@@H]2CCNC2)n1` [Compound 1-288, 3-[(2R)-4-[4-chloro-2-(difluoromethyl)benzoyl]-2-ethylpiperazin-1-yl]-6-(2-ethoxyphenyl)-N-[(3R)-pyrrolidin-3-yl]pyridine-2-carboxamide], the Ki was below 10 nM.
In the case of `CCNc1ccc(C(=O)N2CCN(c3ccc(-c4cccnc4OCC)nc3C(=O)NCCNC)[C@H](CC)C2)c(C(F)(F)F)n1` [Compound 1-225, 2′-ethoxy-5-[(2R)-2-ethyl-4-[6-(ethylamino)-2-(trifluoromethyl)pyridine-3-carbonyl]piperazin-1-yl]-N-[2-(methylamino)ethyl]-[2,3′-bipyridine]-6-carboxamide], the Ki is below 10 nM.
The figure for `CC[C@@H]1CN(C(=O)c2ccc(OC)nc2C(F)(F)F)CCN1c1ccc(-c2cccnc2OC)nc1C(=O)NC1CN(C)C1` [Compound 1-246, 5-[(2R)-2-ethyl-4-[6-methoxy-2-(trifluoromethyl)pyridine-3-carbonyl]piperazin-1-yl]-2′-methoxy-N-(1-methylazetidin-3-yl)-[2,3′-bipyridine]-6-carboxamide] is below 10 nM; for `CCOc1ncccc1-c1ccc(N2CCN(C(=O)c3ccc(Cl)cc3C(F)(F)F)C[C@H]2CC)c(C(=O)NCCC2=NCCN2)c1F` [Compound 1-219, 6-[(2R)-4-[4-chloro-2-(trifluoromethyl)benzoyl]-2-ethylpiperazin-1-yl]-N-[2-(4,5-dihydro-1H-imidazol-2-yl)ethyl]-3-(2-ethoxypyridin-3-yl)-2-fluorobenzamide] it is below 10 nM.

These data come from patent US10981894B2, “Melanocortin subtype-2 receptor (MC2R) antagonists and uses thereof” (Crinetics Pharmaceuticals, Inc., priority 2018, dated 2021).
